# Where “and” joins values, the source holds several entries; their conditions need not be identical. Equal values may be shown once. Entries after “also recorded” stand apart in the source; their conditions may differ.
# Legend:
# [1] = test system: visceral leishmaniasis; assay: Clinical, haematologic and parasite indices during treatment and follow-up (Example 2); format: in vivo, human; conditions: mean
# Description: (§1) Patients newly diagnosed with visceral leighmaniasis, confirmed by the presence of leishmaniasis amastigotes in spleen aspirates, were allocated randomly to groups subjected to the following treatments:
# (§2) 1) IV/IM sodium stibogluconate (SbV) 20 mg/kg body weight once per day;
# (§3) 2) IM paromomycin sulphate (PM) 14-16 mg/kg body weight once per day;
# (§4) 3) IV/IM sodium stibogluconate 20 mg/kg body weight once per day and paromomycin sulphate 14-16 mg/kg body weight once per day.
# (§5) All treatments were administered until the first negative spleen aspirate was obtained, or for 20 consecutive days regardless of aspirate findings.
# (§6) The following procedures were conducted for patient assessment at intake and at suitable intervals during and after treatment: clinical history writeup: physical examination: body weight: chest X-ray: ECG tracing: liver and kidney function tests: blood picture and blood smears (to rule out malaria): complete urinalysis: stool examination: prothrombin time: and spleen aspirate smear examination by the method of Chulay & Bryceson, Quantitations of amastigotes of leishmania donovani in smears of splenic aspirates from patients with visceral leishmaniasis, American Journal of Tropical Medicine and Hygiene, 32, 1983, 475-479.
# [2] = test system: visceral leishmaniasis (leishmaniasis amastigotes in spleen aspirates); assay: Randomised clinical trial in newly diagnosed visceral leishmaniasis: clinical and parasitologic cure (Example 2); format: in vivo, human; conditions: for Clinical cures, % / Clinical cures, No.: at termination, complete abatement of initial symptoms with marked reduction of spleen size; for Apparent cures, % / Apparent cures, No.: negative spleen aspirate smears at termination of treatment; for Failures, % / Failures, No.: partial cures and relapses; for Partial cures, % / Partial cures, No.: persistence of low parasite counts in terminal spleen aspirates; for Definite cures, % / Definite cures, No.: persisting clinical cure with negative spleen aspirates 6 months after termination; for Relapses, % / Relapses, No.: reappearance of leishmanial parasites after an apparent cure; for Mean treatment duration: treated until first negative spleen aspirate or for 20 consecutive days
# Description: as §1, §2, §3, §4, §5
# Exclusion criteria were: […]; known allergy to aminoglycoside compounds: pregnancy; haemoglobin assay below 40 g/l; abnormal prothrombin time; impaired liver or renal function; major concurrent infection; previous drug treatment for leishmaniasis; and spleen smear-parasite grading of less than 4+.
# as §6
# Treatment of effectiveness was graded under the following headings:
# Clinical cure: complete abatement of initial symptoms with marked reduction of spleen size;
# Partial cure: persistence of low parasite counts in terminal spleen aspirates;
# Apparent cure: negative spleen aspirate smears at termination of treatment;
# Relapse: reappearance of leishmanial parasites after an apparent cure;
# Definite cure: persisting clinical cure with negative spleen aspirates 6 months after termination of treatment;
# Failures: partial cures and relapses.
# (§7) Drug safety was assessed for each treatment regime in terms of incidence of drug-related signs and symptoms and of laboratory test results return abnormalities. The assembled data were processed statistically by the Fisher's exact test (chi-square) and Pearson's correlation coefficient.
# [3] = Drug safety: adverse effects and complications (Example 2); format: in vivo, human
# Description: as §1, §2, §3, §4, §5, §6, §7
# [4] = test system: Kala-azar; conditions: 20 mg SbV/kg daily for 40 days; cited from earlier work
# [5] = test system: visceral leishmaniasis; conditions: parenteral, 20 mg/kg body weight over 30 days; cited from earlier work
# [6] = Blood biochemistry during treatment and follow-up (Example 2); format: in vivo, human
# Description: as §2, §3, §4, §5, §6
# The assembled data were processed statistically by the Fisher's exact test (chi-square) and Pearson's correlation coefficient.
compound,measurement,setting,value
"NC[C@@H]1O[C@H](O[C@H]2[C@@H](O)[C@H](O[C@@H]3[C@@H](O)[C@H](N)C[C@H](N)[C@H]3O[C@H]3O[C@H](CO)[C@@H](O)[C@H](O)[C@H]3N)O[C@@H]2CO)[C@H](N)[C@@H](O)[C@@H]1O [PM, paromomycin sulphate]",Eosinophil count,[1]; Day 0 (intake),0 /cu mm
same,Heart rate,[1]; Day 0 (intake),105 min⁻¹
same,Hemoglobin assay,[1]; Day 0 (intake),7.1 g/dL
same,Parasite grading,[1]; Day 0 (intake),5
same,Spleen size,[1]; Day 0 (intake),15.5 cm
same,Temp,[1]; Day 0 (intake),38.3 °C
same,Weight,[1]; Day 0 (intake),34.0 kg
same,Eosinophil count,[1]; Day 20,2 /cu mm
same,Heart rate,[1]; Day 20,84 min⁻¹
same,Hemoglobin assay,[1]; Day 20,10.0 g/dL
same,Parasite grading,[1]; Day 20,1
same,Spleen size,[1]; Day 20,8.4 cm
same,Temp,[1]; Day 20,36.1 °C
same,Weight,[1]; Day 20,37.0 kg
same,Eosinophil count,[1]; Day 75,1 /cu mm
same,Heart rate,[1]; Day 75,82 min⁻¹
same,Hemoglobin assay,[1]; Day 75,12.3 g/dL
same,Parasite grading,[1]; Day 75,1
same,Spleen size,[1]; Day 75,4.3 cm
same,Temp,[1]; Day 75,36.1 °C
same,Weight,[1]; Day 75,39.1 kg
same,"Clinical cures, %",[2],100%
same,"Clinical cures, No.",[2],19 No.
same,incidence of relapses (in words),[2]; comparison of treatment groups,least incidence of relapses; also recorded: smallest share of relapses; also recorded: low rate of relapses
same,parasitologic effectiveness (in words),[2]; comparison of treatment groups,best results
same,share of partial cures (in words),[2]; comparison of treatment groups,highest share of partial cures
same,"Apparent cures, %",[2],84.2%
same,"Apparent cures, No.",[2],16 No.
same,"Failures, %",[2],21%
same,"Failures, No.",[2],4 No.
same,"Partial cures, %",[2],15.8%
same,"Partial cures, No.",[2],3 No.
same,"Definite cures, %",[2],79%
same,"Definite cures, No.",[2],15 No.
same,"Relapses, %",[2],5.2%
same,"Relapses, No.",[2],1 No.
same,Mean treatment duration,[2],19 days
same,"Adverse effects, %",[3]; in vivo,0%
same,"Adverse effects, No.",[3]; in vivo,0 No.
same,antibiotic treatment needed for pneumonia,[3]; in vivo,did not need additional antibiotic medication
same,"bouts of pneumonia, cases",[3]; in vivo,4 cases
same,side effects (in words),[3]; in vivo,no side effects
sodium stibogluconate [SbV],failures,[4],8%
same,Eosinophil count,[1]; Day 0 (intake),0 /cu mm
same,Heart rate,[1]; Day 0 (intake),112 min⁻¹
same,Hemoglobin assay,[1]; Day 0 (intake),7.6 g/dL
same,Parasite grading,[1]; Day 0 (intake),5
same,Spleen size,[1]; Day 0 (intake),14.5 cm
same,Temp,[1]; Day 0 (intake),38.5 °C
same,Weight,[1]; Day 0 (intake),33.2 kg
same,Eosinophil count,[1]; Day 20,1 /cu mm
same,Heart rate,[1]; Day 20,92 min⁻¹
same,Hemoglobin assay,[1]; Day 20,8.9 g/dL
same,Parasite grading,[1]; Day 20,1
same,Spleen size,[1]; Day 20,7 cm
same,Temp,[1]; Day 20,36.2 °C
same,Weight,[1]; Day 20,27.3 kg
same,Eosinophil count,[1]; Day 75,1 /cu mm
same,Heart rate,[1]; Day 75,80 min⁻¹
same,Hemoglobin assay,[1]; Day 75,11.6 g/dL
same,Parasite grading,[1]; Day 75,1
same,Spleen size,[1]; Day 75,5 cm
same,Temp,[1]; Day 75,36.9 °C
same,Weight,[1]; Day 75,36.7 kg
same,cure rate,[5],about 80%
same,"Clinical cures, %",[2],100%
same,"Clinical cures, No.",[2],11 No.
same,parasitologic effectiveness (in words),[2]; comparison of treatment groups,by far the least effective of all
same,"Apparent cures, %",[2],90.9%
same,"Apparent cures, No.",[2],10 No.
same,"Failures, %",[2],45.5% and 45. %
same,"Failures, No.",[2],5 No.
same,"Partial cures, %",[2],9.1%
same,"Partial cures, No.",[2],1 No.
same,"Definite cures, %",[2],54.5%
same,"Definite cures, No.",[2],6 No.
same,"Relapses, %",[2],36.4%
same,"Relapses, No.",[2],4 No.
same,Mean treatment duration,[2],17 days
same,"Adverse effects, %",[3]; in vivo,27%
same,"Adverse effects, No.",[3]; in vivo,3 No.
same,"bouts of pneumonia, cases",[3]; in vivo,5 cases
same,side effects (in words),[3]; in vivo,distinctly more side effects
same,antibiotic treatment needed for pneumonia,[3]; patients with pneumonia,required antibiotic treatment
same,ALAT (Alanine aminotransferase),[6]; Day 0,25.4 I.U./l
same,ALP (Alkaline phosphatase),[6]; Day 0,87.6 I.U./l
same,ASAT (Aspartate aminotransferase),[6]; Day 0,20.2 I.U./l
same,Albumin,[6]; Day 0,31.3 g/L
same,BUN assay,[6]; Day 0,8.2 mmol/L
same,Bilirubin,[6]; Day 0,6.4 µmol/L
same,Creatinine,[6]; Day 0,73.6 µmol/L
same,ALAT (Alanine aminotransferase),[6]; Day 10,24.0 I.U./l
same,ALP (Alkaline phosphatase),[6]; Day 10,79.1 I.U./l
same,ASAT (Aspartate aminotransferase),[6]; Day 10,19.2 I.U./l
same,Albumin,[6]; Day 10,30.3 g/L
same,BUN assay,[6]; Day 10,8.1 mmol/L
same,Bilirubin,[6]; Day 10,4.1 µmol/L
same,Creatinine,[6]; Day 10,68.0 µmol/L
same,ALAT (Alanine aminotransferase),[6]; Day 20,22.0 I.U./l
same,ALP (Alkaline phosphatase),[6]; Day 20,71.0 I.U./l
same,ASAT (Aspartate aminotransferase),[6]; Day 20,21.0 I.U./l
same,Albumin,[6]; Day 20,29.5 g/L
same,BUN assay,[6]; Day 20,4.0 mmol/L
same,Bilirubin,[6]; Day 20,3.8 µmol/L
same,Creatinine,[6]; Day 20,53.0 µmol/L
same,ALAT (Alanine aminotransferase),[6]; Day 75,25.3 I.U./l
same,ALP (Alkaline phosphatase),[6]; Day 75,83.7 I.U./l
same,ASAT (Aspartate aminotransferase),[6]; Day 75,25.5 I.U./l
same,Albumin,[6]; Day 75,36.6 g/L
same,BUN assay,[6]; Day 75,3.8 mmol/L
same,Bilirubin,[6]; Day 75,4.5 µmol/L
same,Creatinine,[6]; Day 75,73.5 µmol/L
same,ALAT (Alanine aminotransferase),[6]; Day 195,23.0 I.U./l
same,ALP (Alkaline phosphatase),[6]; Day 195,84.0 I.U./l
same,ASAT (Aspartate aminotransferase),[6]; Day 195,22.0 I.U./l
same,Albumin,[6]; Day 195,40.0 g/L
same,BUN assay,[6]; Day 195,4.0 mmol/L
same,Bilirubin,[6]; Day 195,4.0 µmol/L
same,Creatinine,[6]; Day 195,78.9 µmol/L
vitamin K,incidence of epistaxis,"[3]; vitamin K 10 mg daily for 5 days, low initial haemoglobin and prolonged prothrombin time",significantly reduced
